Test results taken from paper PMC3693772, “Protein expression, biochemical pharmacology of signal transduction, and relation to intraocular pressure modulation by bradykinin B2 receptors in ciliary muscle” (Molecular Vision, 2013).
Like-named read-outs stand apart in the source and are kept apart here. Square brackets hold non-standard residues; d marks the D form. Peptide text beside a SMILES is read from it. * marks the point of attachment. X1 = COc1ccc(C[C@@H](CN[C@@H](CCCNC(=N)N)C(=O)O)N*)cc1; Hyp = O=C(O)[C@@H]1C[C@@H](O)CN1; 2Thi = N[C@@H](Cc1cccs1)C(=O)O

Key:
[1] = system: CHO-B2 cells (human cloned B2 receptor); type: cell-based, Chinese hamster ovary cells; details: for EC50: 1 h at 37 °C, enzyme immunoassay, mean ± SEM, 3 to 6 experiments, read-out: Total PGs production in CHO-B2 cells (EC50); for PG production/release by compound alone, CHO-B2 cells: compound on its own
[2] = system: primary h-CM cells; type: cell-based, human; details: for EC50: 1 h at 37 °C, enzyme immunoassay, mean ± SEM, 3 to 6 experiments, read-out: Total PGs production in h-CM cells (EC50)
[3] = system: cynomolgus monkey eyes; details: cabergoline 50 µg topical, ocular hypertensive eyes, nine monkeys, ref Thirty ([30]), cited from earlier work
Description: Table 4 Effects of topical ocular bradykinin on IOP of Cynomolgus monkey eyes | column: Monkey IOP changes after topical ocular dosing / IOP (mmHg); Monkey IOP changes after topical ocular dosing / IOP change (% of control)

[4] = target: T1, human cloned B2 receptor (Homo sapiens, UniProt P30411); assay: [^3H]-BK binding to human cloned B2 receptor (CHO-B2 membranes); details: 0.2 nM [^3H]-BK, CHO-B2 homogenates 2.5 µg protein, 60 min, 23 °C, 50 mM Tris/HCl pH 7.4; mean±SEM, up to 19 experiments; read-out: Ligand binding inhibition constant at human cloned B2 receptors (Ki)
T1 construct: purchased Euroscreen, Gosselies, Belgium; host or cells: CHO cells (recombinant, CHO-B2), used as cell homogenates/membranes
T1 sequence (P30411 1-391): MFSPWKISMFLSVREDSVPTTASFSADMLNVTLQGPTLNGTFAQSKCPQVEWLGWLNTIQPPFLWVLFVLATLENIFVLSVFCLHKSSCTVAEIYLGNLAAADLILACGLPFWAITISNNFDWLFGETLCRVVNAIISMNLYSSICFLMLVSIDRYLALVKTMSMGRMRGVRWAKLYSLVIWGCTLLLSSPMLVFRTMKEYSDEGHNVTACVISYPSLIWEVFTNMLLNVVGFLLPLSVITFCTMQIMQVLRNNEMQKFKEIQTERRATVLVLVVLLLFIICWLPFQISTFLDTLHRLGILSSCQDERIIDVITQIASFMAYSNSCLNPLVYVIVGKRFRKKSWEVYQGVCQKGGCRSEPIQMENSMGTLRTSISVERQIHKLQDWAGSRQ
Procedure: However, in view of the difficulty of obtaining sufficient h-CM cells for these initial studies, we decided to use cell membranes of Chinese hamster ovary cells containing the human cloned B2 receptor (CHO-B2; Euroscreen, Gosselies, Belgium). […] Following this incubation, the samples were filtered rapidly under vacuum through glass fiber filters (PerkinElmer) presoaked with 0.3% polyethyleneimine and rinsed several times with an ice-cold 50 mM Tris-HCl buffer using a 96-sample cell harvester (TomTec; Gaithersburg, MD). The filters were air-dried and the radioactivity counted in a beta-scintillation counter (TopCount, PerkinElmer). Data were analyzed using a sigmoidal-fit, iterative algorithm of a computer program designed to automatically fit the new data (Activity base; IDBS, Surrey, UK).

[5] = system: B2-receptor, primary h-CM cells; type: cell-based, human
Procedure: Functional assay measuring [Ca^2+]i mobilization in cultured human ciliary muscle cells
Accordingly, we isolated h-CM cells and studied BK-induced [Ca^2+]i mobilization in these cells using the Fluorescence Imaging Plate Reader (FLIPR; Molecular Devices, Menlo Park, CA) instrument as previously described. Low passage h-CM cells were seeded at a density of about 20,000 cells/well in a black-wall, 96-well tissue culture plates and grown for 2 days. On the day of the experiment, one vial of FLIPR Calcium Assay Kit dye (Molecular Devices) was resuspended in 50 ml of a FLIPR buffer consisting of Hank’s Balanced Salt Solution (HBSS), 20 mM HEPES, and 2.5 mM probenecid, pH 7.4. Cells were loaded with the calcium-sensitive dye (proprietary to Molecular Devices) by adding an equal volume (50 µl) to each well of the 96-well plate and incubated with dye for 1 h at 23 °C. Then the test compound plate and the cell plate were placed in the FLIPR instrument, and an aliquot (25 μl) of the BK solution (positive control) or the test compound was added to the existing 100 μl dye-loaded cells at a dispensing speed of 50 μl/sec. Fluorescence data were collected in real time over a period of time. Responses were measured as peak fluorescence intensity minus basal and where appropriate are expressed as a percentage of a maximum BK-induced response [Emax %]. When antagonist studies were performed, the latter were incubated with the cells for 15 min before BK was added. When the effects of various cellular signaling inhibitors/treatments were investigated, they were added to the cells 5 min before BK was added. The potencies (EC50 or IC50 values) of agonists and antagonists were determined from concentration-response curves using a sigmoidal-fit, iterative algorithm of a computer program designed to automatically fit the raw data (ActivityBase, IDBS, Surrey, UK). […] Concentration-response curves and other plots for the manuscript were constructed using Origin® software package (Microcal® Software Inc., Northampton, MA).
Figure 3 Concentration-dependent effect of bradykinin (BK) on mobilization of [Ca^2+]i in normal, primary h-CM cells. Fluorescent dye-loaded h-CM cells were exposed to different concentrations of BK and the changes in relative fluorescence units (RFUs), indicating changes in levels of [Ca^2+]i, monitored over time (Figure 3A). The peak responses to various BK concentrations were then used to construct the concentration-response curves. Other BK-related peptides were tested in the same manner and their concentration-response curves plotted (e.g., data from a representative experiment; Figure 3B).

[6] = system: CHO-B2 cells; type: cell-based, Chinese hamster ovary cells, human cloned B2 receptor; details: 1 h at 37 °C; enzyme immunoassay; mean ± SEM, 3 to 6 experiments; read-out: PGE2 production in CHO-B2 cells (EC50)
[7] = system: CHO-B2 cells; details: read-out: PGD2 production in CHO-B2 cells (EC50), 1 h at 37 °C, enzyme immunoassay
Procedure: Measurement of prostaglandins in human ciliary muscle and Chinese hamster ovary cells expressing B2 receptors
This involved stimulating h-CM cells and CHO-B2 cells with various concentrations of test peptides and measuring the release of various PGs in the extracellular medium. The concentration-dependent effects of these peptides on total PGs, and specifically PGE2, PGF2α, and PGD2 release, were studied. Cells were grown as a monolayer in a 24-well plate (precoated with fibronectin) to confluence and subsequently serum-starved overnight before the experiment. On the day of the experiment, just before the drug was added, the wells were aspirated completely, and 990 µl basal medium and 10 µl 100× series of concentrations of the different peptide agonists were added to achieve the desired final concentrations of each compound (e.g., 0.1 nM to 10 µM). […] At the end of the incubation period, the cellular supernatants were collected and stored at −80 °C or used immediately to determine the PG content. Cell supernatants were tested for total PG levels and sub-species of PGs (PGE2, PGF2α, and PGD2) using specific competitive enzyme immunoassays (Cayman Chemical Co., Ann Arbor, MI) as directed in the manufacturer’s recommended protocols using the supplied standards and reagents. The limits of detection for various PGs were as follows: total PGs=29 pg/ml; PGE2=15 pg/ml; PGF2α=9 pg/ml; PGD2=200 pg/ml.

[8] = system: h-CM cells; type: cell-based, human; details: 1 h at 37 °C; enzyme immunoassay; mean ± SEM, 3 to 6 experiments; read-out: PGF2α production in h-CM cells (EC50)
[9] = system: primary h-TM cells; type: cell-based, human; details: preliminary data, values rounded-off, read-out: Agonist potency at stimulating [Ca^2+]i mobilization in primary h-TM cells (EC50)
[10] = system: CHO-B2 cells; type: cell-based, Chinese hamster ovary cells, human cloned B2 receptor; details: 1 h at 37 °C; enzyme immunoassay; mean ± SEM, 3 to 6 experiments; read-out: PGF2α production in CHO-B2 cells (EC50)
[11] = system: h-CM cells; type: cell-based, human; details: 1 h at 37 °C; enzyme immunoassay; mean ± SEM, 3 to 6 experiments; read-out: PGE2 production in h-CM cells (EC50)

CNCC(=O)N[C@@H](CCCNC(=N)N)C(=O)N1CCC[C@H]1C(=O)N1CCC[C@H]1C(=O)NCC(=O)N[C@@H](Cc1ccccc1)C(=O)N[C@@H](CO)C(=O)N1CCC[C@H]1C(=O)N[C@H](Cc1ccccc1)C(=O)O [Sar-[D-Phe^9]-Des-Arg^9-BK]
EC50 [1]: > 1 nM | EC50 [2]: > 1000 nM

C=CCN1C[C@H](C(=O)N(CCCN(C)C)C(=O)NCC)C[C@@H]2c3cccc4[nH]cc(c34)C[C@H]21 [Cabergoline, cabergoline]
IOP ([3]; 0 h): 34.7±3.0 mmHg | IOP change (% of control) ([3]; 0 h): 0% | IOP change (% of control) ([3]; 1 h): -16.0% | IOP change (% of control) ([3]; 3 h): -30.4% | IOP change (% of control) ([3]; 7 h): -28.8% | IOP change (% of control) ([3]; 24 h): -27.3%

COc1ccc(C[C@@H](CN[C@@H](CCCNC(=N)N)C(=O)O)NC(=O)[C@@H]2CCCN2C(=O)[C@H](CO)NC(=O)[C@H](Cc2cccs2)NC(=O)CNC(=O)[C@@H]2C[C@@H](O)CN2C(=O)[C@@H]2CCCN2C(=O)[C@@H](N)CCCNC(=N)N)cc1 [RMP-7] (H-RP[Hyp]G[2Thi]SP-X1)
Ki [4]: 11.3 ± 1.1 nM

ryanodine
Effect on BK-induced [Ca^2+]i levels ([5]; ryanodine 1–30 µM, data not shown): did not enhance but instead slightly reduced the effect of BK

N=C(N)NCCC[C@H](N)C(=O)N1CCC[C@H]1C(=O)N1CCC[C@H]1C(=O)NCC(=O)N[C@@H](Cc1ccccc1)C(=O)N[C@@H](CO)C(=O)N1CCC[C@H]1C(=O)N[C@@H](Cc1ccccc1)C(=O)O [Des-Arg^9-BK]
EC50 [6]: > 100 nM | EC50 ([7]; one bound printed): > 100 nM | EC50 [8]: > 1000 nM | EC50 [1]: > 100 nM | EC50 [9]: 3600 nM | EC50 [10]: > 100 nM | EC50 [11]: > 1000 nM | EC50 [2]: > 1000 nM

N=C(N)NCCC[C@H](NC(=O)[C@H](Cc1ccccc1)NC(=O)[C@@H]1CCCN1C(=O)[C@H](CO)NC(=O)[C@H](Cc1ccccc1)NC(=O)CNC(=O)[C@@H]1C[C@@H](O)CN1C(=O)[C@@H]1CCCN1C(=O)[C@@H](N)CCCNC(=N)N)C(=O)O [Hyp^3-BK]
EC50 [6]: 0.0307 ± 0.0185 nM | EC50 ([7]; first of two values in cell): 0.0304 nM | EC50 ([7]; second of two values in cell): 0.0582 nM | EC50 ([5]; primary h-CM cells, FLIPR, Calcium Assay Kit dye, pH 7.4, 23 °C dye loading, mean ± SEM, n=3-7, read-out: Agonist potency at stimulating [Ca^2+]i mobilization in primary h-CM cells (EC50)): 2.2 ± 0.2 nM | EC50 [8]: 9.2 ± 5.3 nM | EC50 [1]: 0.0683 ± 0.0367 nM | EC50 [9]: 1 nM | EC50 [10]: 0.0593 ± 0.0373 nM | EC50 [11]: 10.1 ± 4.2 nM | EC50 [2]: 10.9 ± 6.1 nM

CCCC[P+](CCCC)(CCCC)Cc1ccc(NC(=O)[C@H](Cc2ccc3ccccc3c2)NC(=NC2CCCCC2)NC2CCCCC2)cc1.[Cl-] [(S)-WIN-64338]
EC50 [6]: > 10 nM | EC50 [8]: > 10000 nM | EC50 [1]: > 10 nM | Effect on BK-induced total PGs production, CHO-B2 cells [1]: blocked | Effect on BK-induced total PGs production, CHO-B2 cells ([1]; listed as WIN-64338): potent antagonism | PG production/release by compound alone, CHO-B2 cells [1]: failed to influence PG production | PG production/release by compound alone, CHO-B2 cells ([1]; listed as WIN-64338): did not induce PGs release | EC50 [10]: > 10 nM | EC50 [11]: > 10000 nM | EC50 [2]: > 10000 nM | PG production/release by compound alone, h-CM cells ([2]; compound on its own, listed as WIN-64338): did not induce PGs release | Effect on BK-induced total PGs production, h-CM cells [2]: blocked | Effect on BK-induced total PGs production, h-CM cells ([2]; listed as WIN-64338): potent antagonism

O=C(O)CN(CCOCCOCCN(CC(=O)O)CC(=O)O)CC(=O)O [EGTA, ethylene glycol tetraacetic acid]
Effect on BK-induced [Ca^2+]i mobilization ([5]; EGTA 1 mM, 5 min preincubation): complete abolition of the response to BK | Effect on BK-induced [Ca^2+]i mobilization ([5]; EGTA 1–2 mM): totally abolished | Effect on BK-induced [Ca^2+]i mobilization ([5]; EGTA 1–2 mM, listed as ethylene glycol tetraacetic acid): abolished

C/C=C(/C)C(=O)O[C@H]1C(C)=C2[C@H]([C@@H]1OC(=O)CCCCCCC)[C@@](C)(OC(C)=O)C[C@H](OC(=O)CCC)[C@@]1(O)[C@H]2OC(=O)[C@@]1(C)O [thapsigargin]
Reduction of BK-mobilized [Ca^2+]i levels vs control cells ([5]; thapsigargin 0.1 or 30 µM preincubation): > 50% | Effect on response to BK after thapsigargin ([5]; thapsigargin pretreatment): blunted but not abolished | Effect on BK-induced [Ca^2+]i rise in presence of EGTA ([5]; thapsigargin, 1 mM EGTA included): concentration-dependently reduced
